Data taken from paper PMC6753678, “Fueling Open Innovation for Malaria Transmission-Blocking Drugs: Hundreds of Molecules Targeting Early Parasite Mosquito Stages” (Frontiers in Microbiology, 2019).

Legend:
[1] = system: P. falciparum female gametocytes; design: method as in Miguel-Blanco et al 2017; details: TCAMS library screen; ref Miguel-Blanco et al 2017; read-out: Pf FGAA IC50; cited from earlier work
HepG2 cells = details: HepG2 value reported with Pf FGAA screen; ref Miguel-Blanco et al 2017; cited from earlier work
[2] = system: P. falciparum female gametocytes; experiment: P. falciparum female gametogenesis assay (Pf FGAA); details: 1: YES; 0: NO

SMILES	IC50 [1]	HepG2 cytoxicity (Pf FGAA screen) (HepG2 cells)	Is compound selective in assay? Pf FGAA active? [2]
O=C(O)C(F)(F)F.O=S(=O)(NCCN1CCCC1)c1ccc(-c2cccc(CNC3Cc4ccccc4C3)c2)s1 [TCMDC-132217]	1.29 µM	5.50 µM	0 (0: NO)
CN1CCC(NCc2cccc(-c3ccc(S(=O)(=O)NCc4ccccc4)c(F)c3)c2)CC1.O=C(O)C(F)(F)F [TCMDC-132219]	2.63 µM	5.13 µM	0 (0: NO)
O=C(O)C(F)(F)F.O=S(=O)(NCCN1CCCC1)c1ccc(-c2ccc(CNC3Cc4ccccc4C3)cc2)s1 [TCMDC-132234]	2.27 µM	5.83 µM	0 (0: NO)
Cc1cc(-c2ccc(CNC3Cc4ccccc4C3)cc2)ccc1S(=O)(=O)NCCN1CCCC1.O=C(O)C(F)(F)F [TCMDC-132243]	1.83 µM	5.31 µM	0 (0: NO)
COc1ccc(CNC2CCN(C)CC2)cc1-c1ccc(S(=O)(=O)NCc2ccccc2)s1.O=C(O)C(F)(F)F [TCMDC-132253]	1.75 µM	5.50 µM	0 (0: NO)
COc1ccc(CNC2Cc3ccccc3C2)cc1-c1ccc(S(=O)(=O)NCCN2CCCC2)s1.O=C(O)C(F)(F)F [TCMDC-132258]	1.39 µM	5.31 µM	0 (0: NO)
COc1ccc(CNC2Cc3ccccc3C2)cc1-c1ccc(S(=O)(=O)NCCN2CCCC2)c(F)c1.O=C(O)C(F)(F)F [TCMDC-132266]	1.95 µM	6.03 µM	0 (0: NO)
Cl.N[C@@H](CCNC1CCN(c2cccc(C(F)(F)F)c2)CC1)Cc1ccc(F)c(F)c1 [TCMDC-132301]	0.44 µM	3.76 µM	0 (0: NO)
Cc1ccc(Cn2nc(N3CCNCC3)ccc2=O)cc1NC(=O)Nc1ccc(-c2ccccc2)cc1.O=C(O)C(F)(F)F [TCMDC-132580]	1.94 µM	7.42 µM	0 (0: NO)
O=S(=O)(Nc1cccc(F)c1CNCc1ccccn1)c1ccc(Cl)c(Cl)c1 [TCMDC-132598]	1.36 µM	20.42 µM	1 (1: YES)
Cc1cccc2nc(-c3ccc(-c4ccc(CNCc5ccc(CN)cc5)cc4)cc3)[nH]c12.O=C(O)C(F)(F)F [TCMDC-132813]	2.16 µM	18.09 µM	0 (0: NO)
NCc1ccc(CNCc2ccc(-c3ccc(-c4nc5cc(C(F)(F)F)ccc5[nH]4)s3)cc2)cc1.O=C(O)C(F)(F)F [TCMDC-132814]	1.02 µM	8.32 µM	0 (0: NO)
CNCCNCc1ccc(-c2ccc(-c3nc4cc(C(F)(F)F)ccc4[nH]3)s2)cc1.O=C(O)C(F)(F)F [TCMDC-132838]	1.28 µM	6.10 µM	0 (0: NO)
FC(F)(F)c1ccc2[nH]c(-c3ccc(-c4ccc(CNCCN5CCNCC5)cc4)cc3)nc2c1.O=C(O)C(F)(F)F [TCMDC-132865]	1.41 µM	16.43 µM	1 (1: YES)
Cc1cccc2nc(-c3ccc(-c4ccc(CNCCN5CCNCC5)cc4)s3)[nH]c12.O=C(O)C(F)(F)F [TCMDC-132870]	1.53 µM	14.29 µM	0 (0: NO)
FC(F)(F)c1ccc2[nH]c(-c3cccc(-c4cccc(CNCCN5CCNCC5)c4)c3)nc2c1.O=C(O)C(F)(F)F [TCMDC-132871]	1.22 µM	6.61 µM	0 (0: NO)
CCCN(CC1CC1)c1ncc(-c2cccc(CNCCC3CCCN3C)c2)cn1 (stereo not drawn) [TCMDC-133142]	2.18 µM	3.09 µM	0 (0: NO)
CN(CCc1ccccc1)c1ncc(-c2cccc(CNCCC3CCCN3C)c2)cn1 (stereo not drawn) [TCMDC-133143]	1.36 µM	2.88 µM	0 (0: NO)
CN1CCCC1CCNCc1cccc(-c2cnc(N3CCCC(C)(C)C3)nc2)c1 (stereo not drawn) [TCMDC-133144]	1.67 µM	4.63 µM	0 (0: NO)
O=C(Nc1cccc(-c2cccc(-c3nc4cc(C(F)(F)F)ccc4[nH]3)c2)c1)Nc1ccc(F)c(F)c1F [TCMDC-133229]	1.4 µM	3.43 µM	0 (0: NO)
